Here are results for 19 compounds from patent US20090069304A1, “MMP-13 SELECTIVE INHIBITOR” (SHIONOGI & CO., LTD., priority 2006, published 2009).

For orientation: IC50 means the midpoint of a concentration-inhibition curve. Low values mean inhibition by little substance, high ones a need for much substance. One may read the melting point as the temperature of the solid-liquid transition.

The target in one series is T1, MMP-2 (Homo sapiens, UniProt P08253).
T1 construct: purchased Calbiochem (EMD/MERCK Biosciences)
T1 sequence (P08253 110-660): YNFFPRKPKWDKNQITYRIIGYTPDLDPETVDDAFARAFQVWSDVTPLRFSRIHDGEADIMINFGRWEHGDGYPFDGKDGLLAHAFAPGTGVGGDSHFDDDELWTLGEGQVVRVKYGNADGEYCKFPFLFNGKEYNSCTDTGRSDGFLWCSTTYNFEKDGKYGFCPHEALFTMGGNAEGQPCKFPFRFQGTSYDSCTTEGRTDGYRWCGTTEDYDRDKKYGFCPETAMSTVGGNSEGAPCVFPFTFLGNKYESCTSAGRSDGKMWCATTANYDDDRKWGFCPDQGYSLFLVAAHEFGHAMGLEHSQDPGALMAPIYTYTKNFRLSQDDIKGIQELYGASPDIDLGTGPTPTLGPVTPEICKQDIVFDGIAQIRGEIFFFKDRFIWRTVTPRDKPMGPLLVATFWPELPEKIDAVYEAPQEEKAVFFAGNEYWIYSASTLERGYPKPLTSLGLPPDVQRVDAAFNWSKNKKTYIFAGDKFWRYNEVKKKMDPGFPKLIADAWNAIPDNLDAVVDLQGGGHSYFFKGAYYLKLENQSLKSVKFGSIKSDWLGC
Put plainly: Enzyme inhibiting activity of MMPs (fluorogenic peptide substrate), MMP-2. In kind it is biochemical. The following applies: human MMP-2; substrate MOCAc-Pro-Leu-Gly-Leu-A2Pr(DNP)-Ala-Arg-NH2. Here is the method:
(§1) Various human MMPs (MMP-2, MMP-9 and MMP-13) were purchased from Calbiochem (EMD/MERCK Biosciences).
(§2) The enzyme activity of MMPs was measured according to the method described in C. Graham Knight, Frances Willenbrock and Gillian Murphy: A novel coumarin-labelled peptide for sensitive continuous assays of the matrix metalloproteinases: FEBS LETT., 296, (1992), 263-266. As a substrate, MOCAc-Pro-Leu-Gly-Leu-A2Pr(DNP)-Ala-Arg-NH2 (Peptide Institute, Inc. Osaka, Japan) was used, and the following four assays are performed per compound (inhibitor) for measuring the inhibiting activity.
(§3) (A) Substrate (synthetic substrate), enzyme (MMPs), inhibitor (B) Substrate (synthetic substrate), inhibitor (C) Substrate (synthetic substrate), enzyme (MMPs) (D) Substrate (synthetic substrate) In each assay, the fluorescent intensity was measured, and inhibition (%) was calculated by the following equation.
(§4) Inhibition(%)=[I−(A−B)/(C−D)]×100
(§5) IC50 indicates a concentration at which inhibition (%) is 50%.

The target in the next series is T2, MMP-9 (Homo sapiens, UniProt P14780).
T2 construct: purchased Calbiochem (EMD/MERCK Biosciences)
Put plainly: Enzyme inhibiting activity of MMPs (fluorogenic peptide substrate), MMP-9. The following applies: human MMP-9; substrate MOCAc-Pro-Leu-Gly-Leu-A2Pr(DNP)-Ala-Arg-NH2. In kind it is biochemical. Here is the method:
as §1, §2, §3, §4, §5

Another series deals with T3, MMP-13 (Homo sapiens, UniProt P45452).
T3 construct: purchased Calbiochem (EMD/MERCK Biosciences)
The experiment in a line: Enzyme inhibiting activity of MMPs (fluorogenic peptide substrate), MMP-13. In kind it is biochemical. The following applies: human MMP-13, proenzyme activated with APMA; substrate MOCAc-Pro-Leu-Gly-Leu-A2Pr(DNP)-Ala-Arg-NH2. Here is the method:
as §1
Since the purchased MMP-13 was Proenzyme, the activated one was used, which was incubated at 37° C. for 2 hours after the successive addition of an assay buffer (containing 50 mM Tris-HCl (pH7.6), 0.3 M NaCl, 10 mM CaCl2, 0.005% Brij35) and APMA (final concentration 1 mM) to the enzyme solution.
as §2, §3, §4, §5

T2 sequence (P14780 94-707): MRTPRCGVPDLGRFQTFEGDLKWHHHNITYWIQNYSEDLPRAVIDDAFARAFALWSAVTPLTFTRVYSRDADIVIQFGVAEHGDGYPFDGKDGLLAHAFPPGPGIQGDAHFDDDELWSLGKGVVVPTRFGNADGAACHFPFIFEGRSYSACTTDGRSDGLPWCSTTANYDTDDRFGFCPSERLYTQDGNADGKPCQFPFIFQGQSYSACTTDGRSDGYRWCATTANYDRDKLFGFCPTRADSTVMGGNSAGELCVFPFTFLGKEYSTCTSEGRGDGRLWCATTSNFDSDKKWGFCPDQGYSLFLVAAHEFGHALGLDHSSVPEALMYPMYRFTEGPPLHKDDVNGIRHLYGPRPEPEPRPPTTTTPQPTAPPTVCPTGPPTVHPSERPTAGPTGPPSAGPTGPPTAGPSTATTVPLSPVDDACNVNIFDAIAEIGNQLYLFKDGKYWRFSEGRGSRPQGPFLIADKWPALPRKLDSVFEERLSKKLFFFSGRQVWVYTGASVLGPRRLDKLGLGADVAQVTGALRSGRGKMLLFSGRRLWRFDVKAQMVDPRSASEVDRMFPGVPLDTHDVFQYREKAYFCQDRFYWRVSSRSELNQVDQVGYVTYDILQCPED

For `CCC[C@H](NS(=O)(=O)N1CCN(c2ccc(C#Cc3ccc4cc(OC)ccc4c3)cc2)CC1)C(=O)O` [Compound I-1, (S)-2-{4-[4-(6-methoxy-naphthalen-2-ylethynyl)-phenyl]-piperazine-1-sulfonylamino}-pentanoic acid], the melting point is 187 to 190 °C (dec.). In addition, the IC50 against MMP-2 is over 10 µM. Also, the half-maximal inhibitory concentration (IC50) at MMP-9 was over 10 µM. Moreover, on MMP-13, the midpoint of inhibition, the IC50, lay at 0.121 µM.
For the compound `C[C@@H](NS(=O)(=O)N1CCN(c2ccc(OCc3ccc4ccccc4c3)cc2)CC1)C(=O)O` [Compound I-2, (R)-2-{4-[4-(naphthalen-2-ylmethoxy)-phenyl]-piperazine-1-sulfonylamino}-propionic acid], the melting point fell in the range of 167 to 171 °C.
Regarding `COc1ccc2cc(C#Cc3ccc(N4CCN(S(=O)(=O)N[C@H](C(=O)O)C(C)C)CC4)cc3)ccc2c1` [Compound I-5, (S)-2-{4-[4-(6-methoxy-naphthalen-2-ylethynyl)-phenyl]-piperazine-1-sulfonylamino}-3-methyl-butanoic acid], the half-inhibitory concentration (IC50) at MMP-2 is over 10 µM; against MMP-9, over 10 µM; against MMP-13, 0.11 µM.
As to `COc1ccc2cc(C#Cc3ccc(C4CCN(S(=O)(=O)N[C@H](C)C(=O)O)CC4)cc3)ccc2c1` [Compound I-11, (R)-2-{4-[4-(6-methoxy-naphthalen-2-ylethynyl)-phenyl]-piperidine-1-sulfonylamino}-propionic acid], the IC50 was over 10 µM at MMP-2, over 10 µM against MMP-9 and 0.0549 µM at MMP-13.
`CCC[C@H](NS(=O)(=O)N1CCN(c2ccc(/C=C/c3ccc4ccccc4c3)cc2)CC1)C(=O)O` [Compound I-13]: the concentration for half-maximal inhibition (IC50) against MMP-2 was over 10 µM; at MMP-9, over 10 µM; against MMP-13, 0.0443 µM.
For the compound `COc1ccc2cc(COc3ccc(N4CCN(S(=O)(=O)N[C@@H](C)C(=O)O)CC4)cc3)ccc2c1` [Compound I-15, (S)-2-{4-[4-(6-methoxy-naphthalen-2-ylmethoxy)-phenyl]-piperazine-1-sulfonylamino}-propionic acid], the values for the IC50 at MMP-2, against MMP-9 and against MMP-13 were 1 to 10 µM, over 10 µM and 0.126 µM, respectively.
For `COc1ccc2cc(COc3ccc(C4CCN(S(=O)(=O)NC(C)C(=O)O)CC4)cc3)ccc2c1` (centres unmarked) [Compound I-19] the same measures were over 10 µM, over 10 µM and 0.142 µM.
Taken in the same sequence, the figures for `CCC[C@H](NS(=O)(=O)N1CCC(c2ccc(CCc3ccc4cc(OC)ccc4c3)cc2)CC1)C(=O)O` [Compound I-20, (S)-2-(4-{4-[2-(6-methoxy-naphthalen-2-yl)-ethyl]-phenyl}-piperidine-1-sulfonylamino]-pentanoic acid] were 1 to 10 µM, over 10 µM and 0.0945 µM.
As for `COc1ccc2cc(/C=C/c3ccc(N4CCN(S(=O)(=O)N[C@@H](C)C(=O)O)CC4)cc3)ccc2c1` [Compound I-21, (S)-2-(4-{4-[(E)-2-(6-methoxy-naphthalen-2-yl)-vinyl]-phenyl}-piperazine-1-sulfonylamino}-propionic acid], the IC50 was over 10 µM against MMP-2, over 10 µM against MMP-9 and 0.176 µM at MMP-13.
As for `CCC[C@H](NS(=O)(=O)N1CCC(c2ccc(C=Cc3ccc4cc(OC)ccc4c3)cc2)CC1)C(=O)O` [Compound I-24, (S)-2-(4-{4-[(A)-2-(6-methoxy-naphthalen-2-yl)-vinyl]-phenyl)-piperidine-1-sulfonylamino}-pentanoic acid], the IC50 is over 10 µM against MMP-2, over 10 µM against MMP-9 and 0.138 µM against MMP-13.
In the case of `CCC[C@H](NS(=O)(=O)N1CCC(c2ccc(/C=C/c3ccc4ccccc4c3)cc2)CC1)C(=O)O` [Compound I-25], the IC50 at MMP-2 is over 10 µM; against MMP-9 it was over 10 µM; against MMP-13 it was 0.145 µM.
Turning to `CCOc1ccc2cc(C#Cc3ccc(N4CCN(S(=O)(=O)N[C@H](C)C(=O)O)CC4)cc3)ccc2c1` [Compound I-27, (R)-2-{4-[4-(6-ethoxy-naphthalen-2-ylethynyl)-phenyl]-piperazine-1-sulfonylamino)-propionic acid], the IC50 was over 10 µM on MMP-2, over 10 µM against MMP-9 and 0.0423 µM on MMP-13.
For `CCC[C@H](NS(=O)(=O)N1CCN(c2ccc(C#Cc3ccc4cc(OCC)ccc4c3)cc2)CC1)C(=O)O` [Compound I-28, (S)-2-{4-[4-(6-ethoxy-naphthalen-2-ylethynyl)-phenyl]-piperazine-1-sulfonylamino)-pentanoic acid], the IC50 is over 10 µM against MMP-2, over 10 µM against MMP-9 and 0.0771 µM against MMP-13.
In the case of `C[C@@H](NS(=O)(=O)N1CCN(c2ccc(C#Cc3ccc4cc(OCC5CC5)ccc4c3)cc2)CC1)C(=O)O` [Compound I-32, (R)-2-{4-[4-(6-cyclopropylmethoxy-naphthalen-2-ylethynyl)-phenyl]-piperazine-1-sulfonylamino)-propionic acid], the IC50 is 1 to 10 µM against MMP-2, over 10 µM against MMP-9 and 0.0685 µM at MMP-13.
As to `COc1ccc2cc(CNc3ccc(N4CCN(S(=O)(=O)N[C@H](C)C(=O)O)CC4)cc3)ccc2c1` [Compound I-45, (R)-2-(4-{4-[4-(6-methoxy-naphthalen-2-ylmethyl)-amino]-phenyl}-piperazine-1-sulfonylamino)-propionic acid], the figures for the IC50 at MMP-2, at MMP-9 and against MMP-13 were 1 to 10 µM, over 10 µM and 0.186 µM, respectively.
For the compound `COc1ccc2cc(C#Cc3ccc(N4CCN(S(=O)(=O)N[C@H](C)C(=O)O)C(C)C4)cc3)ccc2c1` (some centres unmarked) [Compound I-47], the IC50 against MMP-2 was over 10 µM; on MMP-9, over 10 µM; at MMP-13, 0.131 µM.
`CCC[C@H](NS(=O)(=O)N1CCN(c2ccc(/C=C/c3ccc4cc(OCOC)ccc4c3)cc2)CC1)C(=O)O` [Compound I-49, (S)-2-(4-{4-[(E)-2-(6-methoxymethoxy-naphthalen-2-yl)-vinyl]-phenyl}-piperazine-1-sulfonylamino)-pentanoic acid]: the IC50 on MMP-2 was 1 to 10 µM; on MMP-9, over 10 µM; on MMP-13 it was 0.0965 µM.
Regarding `COc1ccc2cc(C#Cc3ccc(N4CCN(S(=O)(=O)N[C@H](C)C(=O)O)C[C@@H]4C)cc3)ccc2c1` [Compound I-53], the values for the 50% inhibitory concentration (IC50) against MMP-2, against MMP-9 and at MMP-13 were 1 to 10 µM, over 10 µM and 0.107 µM, respectively.
For `CON=Cc1ccc2cc(C#Cc3ccc(N4CCN(S(=O)(=O)N[C@H](C)C(=O)O)CC4)cc3)ccc2c1` [Compound I-66, (R)-2-(4-{4-[6-(methoxyimino-methyl)-naphthalen-2-ylethynyl]-phenyl)-piperazine-1-sulfonylamino]-propionic acid], the values for the 50% inhibitory concentration (IC50) at MMP-2, against MMP-9 and at MMP-13 were over 10 µM, over 10 µM and 0.0396 µM, respectively.
